Measurements reported in patent publication US20230287003A1, “BCL6 INHIBITORS” (Cancer Research Technology Limited, priority 2018, published 2023).

Assays:
[1] = molecular target: human BCL6 BTB domain (Trx-6×His-BCL6) / BCOR-AF633 peptide (Homo sapiens (Human), UniProt P41182); assay: HTRF assay; type: binding; conditions: 1 nM Trx-6×His-BCL6, 300 nM BCOR-AF633 peptide, 2 hours incubation
[2] = molecular target: BCL6-NCOR2(SMRT) corepressor protein-protein interaction (Homo sapiens (Human), UniProt P41182); assay: NanoBRET cell assay; type: cell-based; conditions: for IC50: read-out: NanoBRET cell avg pIC50 (converted)
Excerpt: At 20 hr post-transfection, cells were collected, washed with PBS, and exchanged into media containing phenol red-free OptiMEM+4% FBS (Life Technology).

| SMILES | IC50 ([1]; HTRF avg pIC50 (1 nM)) [nM] | IC50 [2] [nM] | HTRF avg pIC50 (1 nM) [1] | NanoBRET cell avg pIC50 ([2]; HEK293T cells co-transfected with BCL6-nanoLuc and NCOR2-HaloTag, 6 hr incubation) |
| --- | --- | --- | --- | --- |
| CCC1CCOc2c(c3cc(Nc4ccnc(Cl)c4C#N)ccc3n(C)c2=O)N1 (stereo not drawn) [Example 1c, 2-chloro-4-((2-ethyl-7-methyl-6-oxo-1,2,3,4,6,7-hexahydro-[1,4]oxazepino[2,3-c]quinolin-10-yl)amino)nicotinonitrile] |  | 8710 | 6.32 |  |
| Cn1c(=O)c2c(c3cc(Nc4ccnc(Cl)c4C#N)ccc31)NC(C)(C)CCO2 [Example 1f, 2-chloro-4-((2,2,7-trimethyl-6-oxo-1,2,3,4,6,7-hexahydro-[1,4]oxazepino[2,3-c]quinolin-10-yl)amino)nicotinonitrile] |  | 5130 | 6.24 |  |
| COCC1(C)CCOc2c(c3cc(Nc4ccnc(Cl)c4C#N)ccc3n(C)c2=O)N1 (stereo not drawn) [Example 1g, 2-chloro-4-((2-(methoxymethyl)-2,7-dimethyl-6-oxo-1,2,3,4,6,7-hexahydro-[1,4]oxazepino[2,3-c]quinolin-10-yl)amino)nicotinonitrile] |  | 2510 | 6.30 |  |
| Cn1c(=O)c2c(c3cc(Nc4ccnc(Cl)c4C#N)ccc31)NC(C1CC1)C(F)(F)CO2 (stereo not drawn) [Example 1q, 2-chloro-4-((2-cyclopropyl-3,3-difluoro-7-methyl-6-oxo-1,2,3,4,6,7-hexahydro-[1,4]oxazepino[2,3-c]quinolin-10-yl)amino)nicotinonitrile] |  | 30.2 | 8.35 |  |
| C[C@@H]1CN(c2nc(Cl)c(Cl)c(Nc3ccc4c(c3)c3c(c(=O)n4C)OCC[C@H](C4CC4)N3)n2)C[C@H](C)O1 [Example 1r, (R)-2-cyclopropyl-10-((5,6-dichloro-2-((2S,6R)-2,6-dimethylmorpholino)pyrimidin-4-yl)amino)-7-methyl-1,2,3,4-tetrahydro-[1,4]oxazepino[2,3-c]quinolin-6(7H)-one] |  | 1020 | 6.51 |  |
| Cn1c(=O)c2c(c3cc(Nc4ccnc(Cl)c4C#N)ccc31)N[C@@H](C1CC1)CCS2 [Example 1s, (R)-2-chloro-4-((2-cyclopropyl-7-methyl-6-oxo-1,2,3,4,6,7-hexahydro-[1,4]thiazepino[2,3-c]quinolin-10-yl)amino)nicotinonitrile] |  | 63.1 | 7.83 |  |
| Cn1c(=O)c2c(c3cc(Nc4ccnc(Cl)c4C#N)ccc31)N[C@@H](C1CC1)CCS2(=O)=O [Example 1u, (R)-2-chloro-4-((2-cyclopropyl-7-methyl-5,5-dioxido-6-oxo-1,2,3,4,6,7-hexahydro-[1,4]thiazepino[2,3-c]quinolin-10-yl)amino)nicotinonitrile] |  | 3090 | 8.15 |  |
| Cn1c(=O)c2c(c3cc(Nc4ccnc(Cl)c4C#N)ccc31)N[C@@H](C1CC1)C(F)(F)CO2 [Example 1v, (S)-2-chloro-4-((2-cyclopropyl-3,3-difluoro-7-methyl-6-oxo-1,2,3,4,6,7-hexahydro-[1,4]oxazepino[2,3-c]quinolin-10-yl)amino)nicotinonitrile] |  |  | 8.58 | 7.83 |
| C[C@H]1CCOc2c(c3cc(Nc4cc(C(=O)N5CCC5)nc(Cl)c4C#N)ccc3n(C)c2=O)N1 [Example 3a, (S)-6-(azetidine-1-carbonyl)-2-chloro-4-((2,7-dimethyl-6-oxo-1,2,3,4,6,7-hexahydro-[1,4]oxazepino[2,3-c]quinolin-10-yl)amino)nicotinonitrile] |  | 4790 | 6.88 |  |
| Cn1c(=O)c2c(c3cc(Nc4cc(C(=O)N5CC(C(F)(F)F)C5)nc(Cl)c4C#N)ccc31)N[C@@H](C1CC1)CCO2 [Example 3b, (R)-2-chloro-4-((2-cyclopropyl-7-methyl-6-oxo-1,2,3,4,6,7-hexahydro-[1,4]oxazepino[2,3-c]quinolin-10-yl)amino)-6-(3-(trifluoromethyl)azetidine-1-carbonyl)nicotinonitrile] |  | 646 | 7.32 |  |
| C[C@H]1CCOc2c(c3cc(Nc4ccnc(Cl)c4Cl)ccc3n(C)c2=O)N1 [Example 4a, (S)-10-((2,3-dichloropyridin-4-yl)amino)-2,7-dimethyl-1,2,3,4-tetrahydro-[1,4]oxazepino[2,3-c]quinolin-6(7H)-one] |  | 4900 | 6.21 |  |
| COC[C@@H]1CCCN1C(=O)c1cc(Nc2ccc3c(c2)c2c(c(=O)n3C)OCC[C@H](C)N2)c(Cl)cn1 [Example 4b, (S)-10-((5-chloro-2-((S)-2-(methoxymethyl)pyrrolidine-1-carbonyl)pyridin-4-yl)amino)-2,7-dimethyl-1,2,3,4-tetrahydro-[1,4]oxazepino[2,3-c]quinolin-6(7H)-one] |  | 3310 | 6.70 |  |
| Cn1c(=O)c2c(c3cc(Nc4ccnc(Cl)c4Cl)ccc31)N[C@@H](C1CC1)CCO2 [Example 4c] |  | 708 | 6.85 |  |
| Cn1c(=O)c2c(c3cc(Nc4nc(N5C6CCC5COC6)ncc4Cl)ccc31)N[C@@H](C1CC1)CCO2 [Example 5l, (R)-10-((2-(3-oxa-8-azabicyclo[3.2.1]octan-8-yl)-5-chloropyrimidin-4-yl)amino)-2-cyclopropyl-7-methyl-1,2,3,4-tetrahydro-[1,4]oxazepino[2,3-c]quinolin-6(7H)-one] |  | 120 | 7.49 |  |
| Cn1c(=O)c2c(c3cc(Nc4nc(N5C6COCC5CC(O)C6)ncc4Cl)ccc31)N[C@@H](C1CC1)CCO2 (stereo partly drawn) [Example 5n, (R)-10-((5-chloro-2-((1R,5S,7S)-7-hydroxy-3-oxa-9-azabicyclo[3.3.1]nonan-9-yl)pyrimidin-4-yl)amino)-2-cyclopropyl-7-methyl-1,2,3,4-tetrahydro-[1,4]oxazepino[2,3-c]quinolin-6(7H)-one] |  | 36.3 | 7.97 |  |
| O=c1c2c(c3cc(Nc4nc(N5C6CCC5COC6)ncc4Cl)ccc3n1CC1CC(F)(F)C1)N[C@@H](C1CC1)CCO2 [Example 5q, (R)-10-((2-(3-oxa-8-azabicyclo[3.2.1]octan-8-yl)-5-chloropyrimidin-4-yl)amino)-2-cyclopropyl-7-((3,3-difluorocyclobutyl)methyl)-1,2,3,4-tetrahydro-[1,4]oxazepino[2,3-c]quinolin-6(7H)-one] |  | 97.7 | 7.63 |  |

Other lines, results leading:

| IC50 ([1]; HTRF avg pIC50 (1 nM)) [nM] | IC50 [2] [nM] | HTRF avg pIC50 (1 nM) [1] | NanoBRET cell avg pIC50 ([2]; HEK293T cells co-transfected with BCL6-nanoLuc and NCOR2-HaloTag, 6 hr incubation) | SMILES |
| --- | --- | --- | --- | --- |
| 275 | 25700 |  |  | CC1Nc2c(c(=O)n(C)c3ccc(Nc4nc(N5C[C@H](C)C[C@H](C)C5)ncc4Cl)cc23)C(=O)OC1C (mixture of isomers) [Example 8p, rac-(2S,3R)-10-((5-chloro-2-((3S,5R)-3,5-dimethylpiperidin-1-yl)pyrimidin-4-yl)amino)-2,3,7-trimethyl-2,3-dihydro-[1,4]oxazepino[6,5-c]quinoline-5,6(1H,7H)-dione or rac-(2S,3S)-10-((5-chloro-2-((3S,5R)-3,5-dimethylpiperidin-1-yl)pyrimidin-4-yl)amino)-2,3,7-trimethyl-2,3-dihydro-[1,4]oxazepino[6,5-c]quinoline-5,6(1H,7H)-dione] |
|  | 617 | 7.03 |  | Cn1c(=O)c2c(c3cc(Nc4nc(-n5ccc(C(F)(F)F)n5)ncc4Cl)ccc31)N[C@@H](C1CC1)CCO2 [Example 5a, (R)-10-((5-chloro-2-(3-(trifluoromethyl)-1H-pyrazol-1-yl)pyrimidin-4-yl)amino)-2-cyclopropyl-7-methyl-1,2,3,4-tetrahydro-[1,4]oxazepino[2,3-c]quinolin-6(7H)-one] |
|  | 4680 | 6.43 |  | C[C@H]1CCOc2c(c3cc(Nc4nc(-n5ccc(C(F)(F)F)n5)ncc4Cl)ccc3n(C)c2=O)N1 [Example 5c, (S)-10-((5-chloro-2-(3-(trifluoromethyl)-1H-pyrazol-1-yl)pyrimidin-4-yl)amino)-2,7-dimethyl-1,2,3,4-tetrahydro-[1,4]oxazepino[2,3-c]quinolin-6(7H)-one] |
|  | 1410 | 6.83 |  | C[C@H]1CCOc2c(c3cc(Nc4nc(N5CCC(C(=O)N(C)C)CC5)ncc4Cl)ccc3n(C)c2=O)N1 [Example 5d, (S)-1-(5-chloro-4-((2,7-dimethyl-6-oxo-1,2,3,4,6,7-hexahydro-[1,4]oxazepino[2,3-c]quinolin-10-yl)amino)pyrimidin-2-yl)-N,N-dimethylpiperidine-4-carboxamide] |
|  | 2040 | 6.88 |  | C[C@@H]1CN(c2ncc(Cl)c(Nc3ccc4c(c3)c3c(c(=O)n4C)OCC[C@H](C)N3)n2)C[C@H](C)O1 [Example 5g, (S)-10-((5-chloro-2-((2S,6R)-2,6-dimethylmorpholino)pyrimidin-4-yl)amino)-2,7-dimethyl-1,2,3,4-tetrahydro-[1,4]oxazepino[2,3-c]quinolin-6(7H)-one] |
|  | 1740 | 7.01 |  | C[C@H]1CCOc2c(c3cc(Nc4nc(N5CCOCC5)ncc4Cl)ccc3n(C)c2=O)N1 [Example 5h, (S)-10-((5-chloro-2-morpholinopyrimidin-4-yl)amino)-2,7-dimethyl-1,2,3,4-tetrahydro-[1,4]oxazepino[2,3-c]quinolin-6(7H)-one] |
|  | 112 | 7.22 |  | Cn1c(=O)c2c(c3cc(Nc4nc(N5CC(C)(C)OC(C)(C)C5)ncc4Cl)ccc31)N[C@@H](C1CC1)CCO2 [Example 5k, (R)-10-((5-chloro-2-(2,2,6,6-tetramethylmorpholino)pyrimidin-4-yl)amino)-2-cyclopropyl-7-methyl-1,2,3,4-tetrahydro-[1,4]oxazepino[2,3-c]quinolin-6(7H)-one] |
|  | 89.1 | 7.64 |  | Cn1c(=O)c2c(c3cc(Nc4nc(N5C6CC7CC5CC(C6)O7)ncc4Cl)ccc31)N[C@@H](C1CC1)CCO2 [Example 5o, (R)-10-((2-(2-oxa-6-azaadamantan-6-yl)-5-chloropyrimidin-4-yl)amino)-2-cyclopropyl-7-methyl-1,2,3,4-tetrahydro-[1,4]oxazepino[2,3-c]quinolin-6(7H)-one] |
